# Experimental data taken from US4550186A, “Binuclear copper (II) carboxylates formed from amine-carboxyboranes” (Duke University, priority 1983, dated 1985).
# Tests used:
# [1] = tested on: sn-Glycerol 3-phosphate Acyl Transferase; assay: In vivo liver enzyme study: sn-glycerol 3-phosphate acyl transferase; set-up: species or system mouse; conditions: CF1 liver after 16 days i.p.
# Experimental: (§1) In vitro enzymatic studies were determined using 10% homogenates of CF1 male mouse liver with 50-200 μM of test drugs. In vivo enzymatic studies were determined using 10% homogenates of liver from CF1 male mice obtained after administering the agents for 16 days at a dose ranging from 2.5-20 mg/kg/day intraperitoneally. The liver homogenates for both in vitro and in vivo studies were prepared in 0.25M sucrose and 0.001M (ethylenedinitrilo)tetraacetic acid. Acetyl coenzyme A synthetase and adenosine triphosphate dependent citrate lyase activities were determined spectrophotometrically at 540 nm as the hydroxylamate of acetyl coenzyme A formed after 30 min at 37° C. Mitochondrial citrate exchange was determined by the procedure of Robinson et al [Eur. J. Biochem., 216, 63 (1970)] using ^14 C-sodium bicarbonate (41 mCi/mmol) incorporated into mitochondrial ^14 C-citrate after isolating rat mitochondria (9000 g×10 min) from the homogenates. The exchanges of the ^14 C-citrate were determined after incubating the mitochondrial fraction which was loaded with labeled citrate and test drugs for 10 min. Then the radioactivity was measured in the mitochondrial and supernantant fractions in scintillation fluid and expressed as a percentage. Cholesterol side chain oxidation was determined by the method of Kritchevsky and Tepper [Artherosclerosis, 18, 93 (1973)] using (26-^14 C) cholesterol (50 mCi/mmol) and mitochondria isolated from rat liver homogenates. […] Fatty acid synthetase activity was determined by the method of Brady et al [J. Biol. Chem., 235, 3093 (1960)] using [2-^14 C] malonyl-coenzyme A (37.5 mCi/mmol) which was incorporated into newly synthesized fatty acids that were extracted with ether and counted. Acyl transferase activity was determined with glycerol-3phosphate [L-2-^3 H(N)] […] HCl and counted. Phosphatidate phosphohydrolase activity was measured as the inorganic phosphate released after 30 min from phosphatidic acid by the method of Mavis et al [J. Lipid Res., 19, 467 (1978)]. […]
# [2] = target: phosphoribosyl pyrophosphate amidotransferase (Mus musculus, UniProt Q8CIH9); assay: In vivo phosphoribosyl pyrophosphate amidotransferase activity
# Chain of phosphoribosyl pyrophosphate amidotransferase (Q8CIH9 12-517): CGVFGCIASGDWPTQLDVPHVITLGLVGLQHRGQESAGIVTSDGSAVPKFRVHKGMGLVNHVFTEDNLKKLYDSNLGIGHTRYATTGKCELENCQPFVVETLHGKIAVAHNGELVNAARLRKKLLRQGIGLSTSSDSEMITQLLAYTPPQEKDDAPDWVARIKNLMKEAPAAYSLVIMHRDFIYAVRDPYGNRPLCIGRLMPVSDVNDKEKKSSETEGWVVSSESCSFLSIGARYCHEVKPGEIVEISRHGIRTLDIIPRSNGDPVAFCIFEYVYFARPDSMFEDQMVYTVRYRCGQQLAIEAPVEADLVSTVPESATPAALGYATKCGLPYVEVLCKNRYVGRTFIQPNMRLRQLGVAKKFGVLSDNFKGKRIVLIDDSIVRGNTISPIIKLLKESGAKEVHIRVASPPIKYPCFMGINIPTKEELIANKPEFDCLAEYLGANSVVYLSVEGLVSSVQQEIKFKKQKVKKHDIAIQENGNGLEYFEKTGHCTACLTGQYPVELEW
# Experimental: CF1 male mice (~30 g) were implanted with 2×10^6 Ehrlich ascites tumor cells, intraperitoneally on Day 0. Compound I was suspended by homogenation in 0.05% polysorbate.80-water and administered intraperitoneally at 10 and 20 mg/kg for 9 days to determine its effectiveness for inhibition of tumor growth. Mice were sacrificed on Day 10, and the ascites fluid was collected from the peritoneal cavity. The volume and ascrit (packed cell volume) were determined for each animal and the percent inhibition of tumor growth was calculated. For the metabolic studies, mice were treated on Days 8 and 9 with 10 mg/kg of Compound I, intraperitoneally. […]
# Carbamyl phosphate synthetase activity was determined using the reaction medium of Kalman et al [Am. […] Citrulline formed from ornithine was measured at 490 nm by the method of Archibald [J. Biol. Chem., 156, 121 (1944)]. […] The ^14 CO2 generated in 15 min was trapped in 1M KOH and counted. Thymidylate synthetase activity was determined using a post-mitochondrial supernatant (9000 g×10 min) and 5 μCi of 5-^3 H-deoxyuridine monophosphate (14 Ci/mmol) according to the method of Kampf et al [ J. Med. Chem., 19, 903 (1976)]. ^14 C-Formate incorporation into purines was determined by the method of Spassova et al [Biochem. Pharmacol., 25, 923 (1976)] using 0.5 μCi of ^14 C-formic acid (52.0 mCi/mmol). […] The Rf value for xanthine monophosphate was scraped and counted. […]
# [3] = tested on: Phosphatidate Phosphohydrolase; assay: In vitro liver enzyme study: phosphatidate phosphohydrolase; format: biochemical, mouse; conditions: in vitro CF1 liver, 30 min
# Experimental: as §1
substance,measurement,setting,value
{Cu[(CH3)3 N.BH2 CO2 ]2.(CH3)3 N.BH2 COOH} [Compound I],sn-Glycerol 3-phosphate Acyl Transferase,[1]; 2.5 mg/kg,95 ± 6% of control
same,sn-Glycerol 3-phosphate Acyl Transferase,[1]; 5.0 mg/kg,95 ± 7% of control
same,sn-Glycerol 3-phosphate Acyl Transferase,[1]; 10 mg/kg,119 ± 7% of control
same,Phosphoribosyl pyrophosphate amidotransferase activity,[2]; 10 mg/kg/day I.P. on Days 8 and 9,41 ± 3 % Control
same,Phosphoribosyl pyrophosphate amido transferase activity reduced,[2]; drug administration for 2 days,59%
same,Phosphatidate Phosphohydrolase,[3]; 50 μM,77 ± 5 Percent Control
same,Phosphatidate Phosphohydrolase,[3]; 100 μM,63 ± 6 Percent Control
same,Phosphatidate Phosphohydrolase,[3]; 200 μM,35 ± 3 Percent Control
